ChEMBL document CHEMBL3351436, “Structure-activity studies of (-)-epigallocatechin gallate derivatives as HCV entry inhibitors” (Bioorg Med Chem Lett, 2014)
The source made the active and inactive calls. No cut-off for these calls is given here.

How the values were obtained:
Hepatitis C virus [1] = assay: Antiviral activity against HCV genotype 1a assessed as inhibition of viral entry into Huh7 cells treated at 50 uM for 2 hr followed by 28 hrs incubation period in compound-free medium by immunofluorescence assay; assay type: functional, cell-based; settings: Hepacivirus hominis, subtype 1a, Huh-7
Hepatitis C virus [2] = assay: Antiviral activity against HCV genotype 1a assessed as inhibition of viral entry into Huh7 cells treated for 2 hr followed by 28 hrs incubation period in compound-free medium by immunofluorescence assay; assay type: functional, cell-based, Hepacivirus hominis; settings: subtype 1a, Huh-7
[3] = Cytotoxicity against human HuH7 cells assessed as reduction cell viability up to 1 mM after 48 to 72 hrs by MTS assay; assay type: cell-based; settings: huh-7

SMILES | inhibition (Hepatitis C virus [1]) | IC50 (Hepatitis C virus [2]) | Activity [3]
O=C(O[C@@H]1Cc2c(O)cc(O)cc2O[C@@H]1c1cc(O)c(O)c(O)c1)c1ccc(F)c(F)c1 | Active | 6.9 µM | Non-toxic
O=C(O[C@@H]1Cc2c(O)cc(O)cc2O[C@@H]1c1cc(O)c(O)c(O)c1)c1ccncc1 | inactive | – | –
O=C(O[C@@H]1Cc2c(O)cc(O)cc2O[C@@H]1c1cc(O)c(O)c(O)c1)c1cc(O)c(O)c(O)c1 [EPIGALOCATECHIN GALLATE] | Active | 20 µM | –
O=C(O[C@@H]1Cc2c(O)cc(O)cc2O[C@H]1c1cc(O)c(O)c(O)c1)c1cc(O)c(O)c(O)c1 | Active | – | –
CC1Oc2ccc(C#N)cc2C=C1C(=O)NC1CCNCC1 (centres undefined) | inactive | – | –
O=C(O[C@@H]1Cc2c(O)cc(O)cc2O[C@@H]1c1cc(O)c(O)c(O)c1)c1ccccc1 | Active | 27 µM | Non-toxic
O=C(O[C@H]1Cc2c(O)cc(O)cc2O[C@@H]1c1ccccc1)c1cc(O)c(O)c(O)c1 (racemic) | inactive | – | –
O=C(O[C@@H]1Cc2ccccc2O[C@@H]1c1ccccc1)c1cc(O)c(O)c(O)c1 (racemic) | inactive | – | –
CC1Oc2ccc(C#N)cc2C=C1C(=O)N[C@H]1CC[C@@H](N)CC1 (some centres undefined) | inactive | – | –
